Measured values published in US20220322803A1 (KONKUK UNIVERSITY INDUSTRIAL COOPERATION CORP, priority 2019, published 2022).

Key:
[1] = Straight perm of curly hair; settings: second agent (gel with 0.5% xanthan gum for the waters) oxidized 10 minutes
Experimental: The first agent used in straight perm was Standard of Hair […] Two Way Straight (UCL, Incheon). The second agent used in the perm was a mixture of Standard of Hair […] Two Way Straight (UCL, Incheon) and xanthan gum in each hydrogen water and electrolyzed water. Tap water was used to generate the used electrolyzed hydrogen water and electrolyzed water. […] To each of these, xanthan gum was added to 0.5% and mixed to form a gel. The perm process proceeded as follows. The first agent was applied to the hair and softened at 37° C. for 30 minutes. […] After the oxidation process was completed, the hair was washed, photographed, and measured.

[2] = Cold perm with 25°C electrolyzed water sprayed as second agent; settings: hydrogen peroxide as second agent; basis of commercial suitability; hair 27 cm
Experimental: About 50 strands of natural black hair were fixed and cut to 27 cm in length and used in the experiment. The perm process was performed as follows. The natural black hair was fixed and washed according to the above standards. After washing, the dried hair bundle was reduced by treatment with the first agent (Hair 119 Clinic SuBoon Perm, Eson Chemical, Korea) at 37° C. for 25 minutes. After the reduction process, the first agent was removed by washing with distilled water to increase the reproducibility of the wave efficiency. […] After the application was finished, the rod was removed.

[3] = Perm of brown hair, hydrogen water vs hydrogen peroxide as second agent; settings: 30 washes, hydrogen water 10 times at 2-minute intervals, hydrogen peroxide left 10 minutes
Experimental: According to the method used in a general beauty salon using a rod, cysteine treatment as a reduction agent, intermediate washing, setting, oxidation agent treatment, and measurement after washing were performed in the order. Brown hair was treated with a reduction agent (Hair 119 Clinic SuBoon Perm, Eson Chemical, Korea) and left at 37° C. for 5 minutes. […] Then the hair was separated. After washing them once, the length of perm hair was measured. After that, the perm hair length was measured when repeatedly washed 30 times, once a day (FIG. 3C). Natural Shampoo (Repit, Korea) was used as a cleaning agent. A method of preparing hydrogen water is as follows. After adding NaCl to distilled water to prepare a 0.05% NaCl solution, salted distilled water was boiled for about 5 minutes to remove dissolved oxygen as much as possible, and then quenched to 25° C. (water cooling).

OO [hydrogen peroxide]
result of straight perm treatment [1]: curly hair was well straightened
length of the perm hair after washing once [2]: about 22 cm
split ends / hair surface (bleached, dyed hair after perm): had split ends
dye eluted (washing once after the perm treatment, from L value): 11.43%
sagging of wave [3]: sagging was seen in 30 washes
